Data reported in PMC6318789 (Journal of the American Chemical Society, 2015).
pIC50: −log10 of the molar value.

Molecular target: p300 (Homo sapiens, UniProt Q09472)
Type: binding

Sequence of p300 (Q09472 323-423): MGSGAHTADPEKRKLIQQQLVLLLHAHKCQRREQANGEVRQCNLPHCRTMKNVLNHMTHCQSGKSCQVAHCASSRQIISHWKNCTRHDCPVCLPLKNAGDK
Sequence of p300 (Q16665 786-826 partner): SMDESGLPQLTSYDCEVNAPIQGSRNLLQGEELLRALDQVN

COc1ccc(C2(O)N=C3N=CC=C4c5ccccc5N=C2N43)cc1 (racemic) [compound 1, eudistidine A]
pIC50: ~4.12
